Among the data in ChEMBL document CHEMBL1156829 (Proc Natl Acad Sci U S A, 2008) are EC50 and CC50 values, retold here.

Data set [1] relates to Plasmodium falciparum. Kind of data set: NOVARTIS: Inhibition of Plasmodium falciparum 3D7 (drug-susceptible) proliferation in erythrocyte-based infection assay. Type of data set: functional, organism-based. As to conditions: Plasmodium falciparum, 3D7.
The test system of data set [2] is Plasmodium falciparum. Kind of data set: NOVARTIS: Inhibition of Plasmodium falciparum W2 (drug-resistant) proliferation in erythrocyte-based infection assay. The note with it: Plasmodium falciparum, W2; read-out: EC50. Format: functional, organism-based.
Data set [3] in a line: NOVARTIS: Cytotoxicity against human hepatocellular carcinoma cell line (Huh7). As to conditions: Huh7 cells (hepatocellular carcinoma cell line). Format: toxicity, cell-based, Huh-7.

Consider `CCN(CC)Cc1cc(Nc2ccnc3cc(Cl)ccc23)ccc1O`, for which the concentration giving a half-maximal response (EC50) (in general, the concentration giving half of the maximal effect) is 10.3 nM in data set [1] and 13 nM in data set [2]. The CC50 (in general, the concentration at which the toxic effect on the cells reaches its halfway point) in data set [3] is over 100000 nM.
The matching figures for `CCN(CC)CCNc1ccnc2cc(Cl)ccc12`: 7.16 nM, 6.01 nM and 29800 nM.
Take `CCc1ccccc1N=C1c2c(cccc2[N+](=O)[O-])C(=O)C1C(C)=O` (stereo not drawn): the 50% effective concentration (EC50) in data set [1] came out at 11.3 nM; in data set [2] it was 15.4 nM. Moreover, the CC50 in data set [3] is over 100000 nM.
On the same counts, the results for `CC(C=NNC(N)=S)=NNC(N)=S` are 8.94 nM, 7.23 nM and over 100000 nM.
For the molecule `COc1cc(NC(C)CCCN(Cc2ccc(F)cc2)C(=O)C(c2ccccc2)c2ccccc2)c2ncccc2c1` (stereo not drawn), the concentration giving a half-maximal response (EC50) in data set [1] was over 1090 nM; in data set [2] it was under 0.572 nM. This molecule also returned a CC50 in data set [3] of over 3470 nM.
For the molecule `CCc1ccc(C(=O)N(CCc2ccccc2)C(CC)c2nc3ccccc3c(=O)n2-c2ccccc2OC)cc1` (stereo not drawn), the EC50 in data set [1] was 389 nM; in data set [2], 1.5 nM. This molecule came in with a half-maximal cytotoxic concentration (CC50) in data set [3] of over 9700 nM.
The matching figures for `CCC(c1nc2ccccc2c(=O)n1-c1ccc(F)c(Cl)c1)N(CCc1ccccc1)C(=O)COc1ccc(Cl)cc1` (stereo not drawn): 941 nM, under 0.849 nM and over 6450 nM.
On the same counts, the results for `CCOC(=O)c1c(NC(=O)c2ccccc2)sc2c(O)c(CN(CC)CC)ccc12` are 267 nM, 8.44 nM and over 46800 nM.
The matching figures for `CCCOC(=O)C1=C(C)NC2=C(C(=O)CC(c3ccc(OC)c(OC)c3)C2)C1c1ccccc1C` (stereo not drawn): 12.7 nM, 9.78 nM and over 100000 nM.
As to `CCCOC(=O)C1=C(C)NC2=C(C(=O)CC(c3ccc(OC)cc3)C2)C1c1ccccc1Cl` (stereo not drawn), the EC50 in data set [1] is 27.2 nM; in data set [2], 22.1 nM. In addition, in data set [3], the CC50 was over 100000 nM.
The matching figures for `COc1ccc(C2CC(=O)C3=C(C2)NC(C)=C(C(=O)OC(C)C)C3c2cccc(Cl)c2Cl)cc1OC` (stereo not drawn): 67.6 nM, 18.1 nM and over 87300 nM.
As to `CCCOC(=O)C1=C(C)NC2=C(C(=O)CC(c3ccc(OC)cc3)C2)C1c1ccccc1F` (stereo not drawn), the results for the concentration for a half-maximal effect (EC50) in data set [1] and in data set [2] were 55 nM and 20.1 nM, respectively. In data set [3], this molecule gave a 50% cytotoxic concentration (CC50) of over 100000 nM.
The matching figures for `CCCOC(=O)C1=C(C)NC2=C(C(=O)CC(c3ccc(Cl)cc3)C2)C1c1ccccc1F` (stereo not drawn): 254 nM, 18.6 nM and over 100000 nM.
On the same counts, the results for `COCCOC(=O)C1=C(C)NC2=C(C(=O)CC(c3ccc(OC)c(OC)c3)C2)C1c1ccccc1Cl` (stereo not drawn) are 50.4 nM, 13.2 nM and over 100000 nM.
For `COc1ccc(C2CC(=O)C3=C(C2)NC(C)=C(C(=O)OC(C)C)C3c2ccc(F)cc2)cc1` (stereo not drawn), the concentration giving a half-maximal response (EC50) was found to be 83.4 nM in data set [1] and 23.2 nM in data set [2]. In data set [3], the 50% cytotoxic concentration (CC50) was over 100000 nM.
On the same counts, the results for `CCOC(=O)C1=C(C)NC2=C(C(=O)CC(c3ccc(OC)c(OC)c3)C2)C1c1c(F)cccc1Cl` (stereo not drawn) are 76.7 nM, 23 nM and over 100000 nM.
The matching figures for `CCCOC(=O)C1=C(C)NC2=C(C(=O)CC(c3ccc(OC)c(OC)c3)C2)C1c1ccc([N+](=O)[O-])cc1` (stereo not drawn): 25.9 nM, 20.5 nM and over 100000 nM.
The matching figures for `COc1ccc(OC)c(-c2ccc(O)c(CN3CCC(c4ccccc4)CC3)c2)c1`: 508 nM, 9.12 nM and over 100000 nM.
For the molecule `CCOC(=O)C1=C(C)NC2=C(C(=O)CC(c3ccc(OC)c(OC)c3)C2)C1c1ccccc1Cl` (stereo not drawn), the concentration giving a half-maximal response (EC50) is 5.05 nM in data set [1] and 8.74 nM in data set [2]. The same molecule returned a 50% cytotoxic concentration (CC50) in data set [3] of over 100000 nM.
On the same counts, the results for `CCOC(=O)c1cc(-c2ccc(OC)cc2)n(CCC(=O)Nc2cccc(C(C)=O)c2)c1C` are 21.8 nM, 8.49 nM and over 100000 nM.
The matching figures for `CCOC(=O)C1=C(C)NC2=C(C(=O)CC(c3ccc(OC)c(OC)c3)C2)C1c1ccc(F)cc1` (stereo not drawn): 18.3 nM, 12.4 nM and over 100000 nM.
As to `CCCOC(=O)C1=C(C)NC2=C(C(=O)CC(c3ccc(OC)c(OC)c3)C2)C1c1cccc(Cl)c1Cl` (stereo not drawn), the concentration for a half-maximal effect (EC50) came out at 48.4 nM in data set [1] and 11.9 nM in data set [2]. Also, in data set [3], the CC50 is over 100000 nM.
The matching figures for `CCCCOc1ccc(N(C(C)=O)C2=C(N3CCCCC3)C(=O)c3ccccc3C2=O)cc1`: 5.64 nM, 4.14 nM and 54400 nM.
In the case of `COc1ccc(C2CC(=O)C3=C(C2)NC(C)=C(C(=O)OC(C)C)C3c2ccccc2C)cc1OC` (stereo not drawn), the EC50 stood at 9.98 nM in data set [1] and 14.5 nM in data set [2]. This molecule also showed a CC50 in data set [3] of over 100000 nM.
On the same counts, the results for `COc1ccc(C2CC(=O)C3=C(C2)NC(C)=C(C(=O)OC2CCCC2)C3c2ccccc2Cl)cc1OC` (stereo not drawn) are 55.8 nM, 7.38 nM and over 100000 nM.
On the same counts, the results for `COC(=O)C1=C(C)NC(=Cc2cc(C)n(-c3cc(C)ccc3C)c2C)C1=O` are 9.53 nM, 18.4 nM and over 100000 nM.
Take `O=C1N(Cc2cc3ccccc3s2)CC2CN(Cc3cccc4c3OCO4)CCN12` (stereo not drawn): the EC50 in data set [1] was 727 nM; in data set [2], under 0.572 nM. In data set [3], this molecule had a 50% cytotoxic concentration (CC50) of over 10000 nM.
In the case of `CN(C)CC(C)(C)CNCc1cc(-c2ccccc2)ccc1O`, the EC50 in data set [1] turned out to be 66.1 nM; in data set [2], 6.53 nM. Further, in data set [3], it took 38000 nM to reach half-maximal cytotoxicity (CC50).
The matching figures for `CC(C)CNCc1cc(-c2ccc(F)cc2)ccc1O`: 104 nM, 10 nM and 58600 nM.
The matching figures for `C=CC1CN2CCC1C(C(O)c1ccnc3ccc(OC)cc13)C2` (stereo not drawn): 7.21 nM, 15.1 nM and over 100000 nM.
On to `COC(=O)C1=C(C)NC2=C(C(=O)CC(c3ccc(OC)c(OC)c3)C2)C1c1ccc(Cl)cc1Cl` (stereo not drawn), for which the EC50 in data set [1] worked out at 169 nM; in data set [2] it was 14.3 nM. The same molecule yielded a CC50 in data set [3] of over 100000 nM.
On the same counts, the results for `COC(=O)C1=C(C)NC2=C(C(=O)CC(c3ccc(OC)c(OC)c3)C2)C1c1ccc(F)cc1` (stereo not drawn) are 27.9 nM, 14 nM and over 100000 nM.
On the same counts, the results for `COCCOC(=O)C1=C(C)NC2=C(C(=O)CC(c3ccc(OC)c(OC)c3)C2)C1c1ccc(Cl)cc1Cl` (stereo not drawn) are 22.4 nM, 13.1 nM and over 100000 nM.
On the same counts, the results for `COc1ccc(C2CC(=O)C3=C(C2)NC(C)=C(C(=O)OC2CCCC2)C3c2ccccc2C)cc1OC` (stereo not drawn) are 33.4 nM, 13.1 nM and over 100000 nM.
For `CCOC(=O)C1=C(C)NC2=C(C(=O)CC(c3ccc(OC)c(OC)c3)C2)C1c1ccc(Cl)cc1Cl` (stereo not drawn), the results for the half-maximal effective concentration (EC50) in data set [1] and in data set [2] were 25.4 nM and 11.6 nM, respectively. The same molecule showed a CC50 in data set [3] of over 100000 nM.
On the same counts, the results for `CCCOC(=O)C1=C(C)NC2=C(C(=O)CC(c3ccc(OC)c(OC)c3)C2)C1c1ccccc1Br` (stereo not drawn) are 76.6 nM, 11.2 nM and over 100000 nM.
On the same counts, the results for `CCCOC(=O)C1=C(C)NC2=C(C(=O)CC(c3ccc(OC)c(OC)c3)C2)C1c1ccccc1F` (stereo not drawn) are 6.71 nM, 5.41 nM and over 100000 nM.
For the molecule `CCOc1cc2c(cc1OCC)C(c1ccc(O)c(Cl)c1)NCC2` (stereo not drawn), the values for the half-maximal effective concentration (EC50) in data set [1] and in data set [2] were 157 nM and 12.5 nM, respectively. The half-maximal cytotoxic concentration (CC50) in data set [3] was over 97900 nM.
Turning to `COc1ccc(C2CC(=O)C3=C(C2)NC(C)=C(C(=O)OC2CCCC2)C3c2ccc([N+](=O)[O-])cc2)cc1OC` (stereo not drawn), the EC50 in data set [1] turned out to be 31 nM; in data set [2], 14.8 nM. The half-maximal cytotoxic concentration (CC50) in data set [3] was over 100000 nM.
Take `OC1=C2C(=Nc3ccccc3SC2c2cccs2)c2ccccc21` (stereo not drawn): the half-maximal effective concentration (EC50) in data set [1] is 42.8 nM; in data set [2], under 2.47 nM. Also, the midpoint of cytotoxicity in data set [3], the CC50, lay at 49500 nM.
Turning to `CN(Cc1cc(-c2ccc(F)cc2)ccc1O)CC(O)c1ccccc1` (stereo not drawn), the figures for the EC50 in data set [1] and in data set [2] were 223 nM and 14.2 nM, respectively. In data set [3], this molecule gave a CC50 of over 70900 nM.
The matching figures for `COc1cccc(-c2ccc(O)c(CNCC3CC4C=CC3C43CC3)c2)n1` (stereo not drawn): 153 nM, 19.9 nM and over 85900 nM.
The matching figures for `CCOC(=O)c1c(NC(C)=O)sc2c(O)c(CNC3CCCCC3)ccc12`: 80.5 nM, 21.4 nM and over 100000 nM.
On the same counts, the results for `COc1ccc(-n2c(SCC(=O)Nc3cc(Cl)ccc3OC)nnc2-c2ccccc2)cc1` are over 1100 nM, under 1.06 nM and over 11400 nM.
Take `COCCOC(=O)C1=C(C)NC2=C(C(=O)CC(c3ccc(OC)c(OC)c3)C2)C1c1ccccc1F` (stereo not drawn): the EC50 in data set [1] was 82 nM; in data set [2] it was 11.8 nM. Further, in data set [3], the half-maximal cytotoxic concentration (CC50) is over 100000 nM.
The matching figures for `CC1N=C(c2ccc(NC(=O)c3ccc(C(=O)Nc4ccc(C5=NC(C)C(C)N5)cc4)cc3)cc2)NC1C` (stereo not drawn): 57.6 nM, 14.8 nM and over 100000 nM.
The matching figures for `CN1C(=O)N(C)C(NNC(N)=S)C1NNC(N)=S` (stereo not drawn): 8.92 nM, 6.21 nM and over 100000 nM.
The matching figures for `COc1cc(NC(C)CCCN(Cc2ccc(Cl)cc2)C(=O)Nc2ccccc2F)c2ncccc2c1` (stereo not drawn): over 1090 nM, under 0.572 nM and over 8250 nM.
In the case of `Oc1ccc(-c2ccc(F)cc2)cc1CN1CCCCCC1`, the values for the EC50 in data set [1] and in data set [2] were 110 nM and 19.6 nM, respectively. For the same molecule, the CC50 in data set [3] is over 100000 nM.
The matching figures for `CCC(c1nc2ccccc2c(=O)n1-c1ccccc1OC)N(CCc1ccccc1)C(=O)CCc1ccccc1` (stereo not drawn): 134 nM, under 0.572 nM and 4170 nM.
The matching figures for `CCCOC(=O)C1=C(C)NC2=C(C(=O)CC(c3ccc(OC)cc3)C2)C1c1ccc(Cl)cc1Cl` (stereo not drawn): 36.9 nM, 16.2 nM and over 100000 nM.
